Results reported in EP0081756A1, “New compounds with antiinflammatory and antitussive activity, process for their preparation and relative pharmaceutical compositions” (MEDEA RESEARCH S.r.l., priority 1981, dated 1983).
Marks after values point to notes of the source that are not given here.

Key:
[1] = test system: whrithing by phenylquinone; experiment: Analgesic activity, writhing by phenylquinone (method of Siegmund); type: in vivo; conditions: mice
carrageenin edema = experiment: Antiinflammatory activity, carrageenin edema test (method of Winter); type: in vivo; conditions: rat; for % INHIBITION / EDEMA VOLUME Final value: 50 mg/kg oral 30 minutes before carrageenin, measured 3 hours after induction; for EDEMA VOLUME Basal value: 50 mg/kg oral
Description: The antiinflammatory activity of MR 549 has been assessed by the carrageenin edema test in the rat according to the method of Winter et al. (Proc. Soc. Exp. Biol. Med., 1962, III, 544).
The product under exam and indomethaoin at equiponderant doses have been administered by the oral route 30 minutes before of the subplantar carragee ning injection; pletismographic measures of the edemas have been performed 3 hours after they had been induced.

gastric mucosa [2] = experiment: Gastric tolerability (method of Pisanti and Volterra); conditions: fasting rats, 12 animals
Description: (§3) Male rats of S-D strain, weighing 180-200 g and fasting for 48 hours with free access to water, have been used. The product under exam have been administered by intraperitoneal routes : twice (after 24 and 31 hours from the beginning of the fasting period) at the single dose of 100 mg/kg; or three times by oral route (9.24 and 31 hours after the beginning of the fasting period) at the single dose of 150 mg/kg.

[3] = Acute toxicity after single administration, rat; conditions: in vivo
Description: (§1) The toxicity after single administrations of MR 549 has been studied in mice and rats by the oral and intraperitoneal routes.
(§2) The LD50 values have been calculated according to the method of Litchfield and Wilooxon (J. Pharm. Exp. Therap., 1949, 96, 99).

mouse = experiment: Acute toxicity after single administration, mouse; type: in vivo; conditions: mice and rats, oral and intraperitoneal routes
Description: as §1, §2

[4] = Acute toxicity after single administration, mouse; type: in vivo; conditions: in vivo, mouse, single administration
Description: as §1, §2

gastric mucosa [5] = conditions: rat, in vivo, po
Description: as §3

motor activity = experiment: Spontaneous motor activity; type: in vivo; conditions: Swiss mouse, 50 mg/kg i.p.
Description: The effect of MR 549 on the motor activity has been studied in the Swiss mouse, by placing two groups of animals in a box connected with a recorder detec ting spontaneous motility. On the basis of movemen- ts/minute recorded, MR 549 at the dose of 50 mg/kg i.p. has been administered to one group and the ac tivity has been recorded during the 2 hours following treatment; the second group, treated with the solvent alone, has been used as control group.

[6] = 50 mg/kg os, 30 minutes before phenylquinone injection

## CC(=O)Oc1ccccc1C(=O)O [ACETYL-SALICYLIC ACID, acetylsalicylic acid, reference compound]
[1]; 100 mg/kg os
  % INHIBITION IN COMPARISON WITH CONTROLS: 79.6%
  N° CONTORSIONS X̄ ± e.s.: 3.9 ± 1.93
  N° WHRITHING ANIMALS/TOTAL N&: 12/20

## COc1ccc2c(c1)c(CC(=O)O)c(C)n2C(=O)c1ccc(Cl)cc1 [INDO-METHACINE, indomethacin, reference compound]
Carrageenin edema
  % INHIBITION: 53.2%
  EDEMA VOLUME Final value: 29.6
  EDEMA VOLUME Basal value: 22.5

## CCCCC1C(=O)N(c2ccccc2)N(c2ccccc2)C1=O [Phenylbu-tazone, phenylbutazone]
Gastric mucosa [2]; 100 mg X 2 i.p.
  % ANIMALS WITH ULCERS: 83.30%
  N° ANIMALS WITH ULCERS: 10*
  animals died during treatment: * an animal died during treatment
Gastric mucosa [2]; 150 mg X 3 os
  % ANIMALS WITH ULCERS: 91.67%
  N° ANIMALS WITH ULCERS: 11**
  animals died during treatment: ** two animals died during treatment.

## Cc1cccnc1NC(=O)C1(c2ccccc2)CCCC1 [MR 549, 2-[(1-phenyl)cyclopentyl-carbonyl]-amino-3-methylpyridine]
[3]; ip
  LD50: 600 mg/kg
[3]; po, os
  LD50: 1100 mg/kg
mouse
  acute toxicity (verbal summary): very low acute toxicity
[4]; ip
  LD50: 300 mg/kg
[4]; po, os
  LD50: 550 mg/kg
Carrageenin edema
  % INHIBITION: 38.1%
  EDEMA VOLUME Final value: 31.8
  EDEMA VOLUME Basal value: 22.6
Gastric mucosa [5]
  gastrolesive action (verbal summary): clearly lower than phenylbutazone
Motor activity; 15'
  N° recorded movements/min.: 42 movements/min.
Motor activity; 30'
  N° recorded movements/min.: 52 movements/min.
Motor activity; 60'
  N° recorded movements/min.: 39 movements/min.
Motor activity; 90'
  N° recorded movements/min.: 52 movements/min.
Motor activity; Time: 0
  N° recorded movements/min.: 45 movements/min.
[1]; [6]
  % INHIBITION IN COMPARISON WITH CONTROLS: 63.9%
  N° CONTORSIONS X̄ ± e.s.: 6.9 ± 2.24
  N° WHRITHING ANIMALS/TOTAL N&: 14/20
